Results from US12421210B2, “Fused bicyclic heterocycles as therapeutic agents” (NEW YORK UNIVERSITY, priority 2018, dated 2025).

Each compound was assayed against human NAMPT enzyme (His-hNAMPT) (Homo sapiens (Human), UniProt P43490) (assay: NAMPT enzymatic inhibition assay (fluorescence, NADH product)). Settings: [BPS]; read-out: NAMPT IC50 (μM) [BPS].
Sequence of human NAMPT enzyme (His-hNAMPT) (P43490 whole entry): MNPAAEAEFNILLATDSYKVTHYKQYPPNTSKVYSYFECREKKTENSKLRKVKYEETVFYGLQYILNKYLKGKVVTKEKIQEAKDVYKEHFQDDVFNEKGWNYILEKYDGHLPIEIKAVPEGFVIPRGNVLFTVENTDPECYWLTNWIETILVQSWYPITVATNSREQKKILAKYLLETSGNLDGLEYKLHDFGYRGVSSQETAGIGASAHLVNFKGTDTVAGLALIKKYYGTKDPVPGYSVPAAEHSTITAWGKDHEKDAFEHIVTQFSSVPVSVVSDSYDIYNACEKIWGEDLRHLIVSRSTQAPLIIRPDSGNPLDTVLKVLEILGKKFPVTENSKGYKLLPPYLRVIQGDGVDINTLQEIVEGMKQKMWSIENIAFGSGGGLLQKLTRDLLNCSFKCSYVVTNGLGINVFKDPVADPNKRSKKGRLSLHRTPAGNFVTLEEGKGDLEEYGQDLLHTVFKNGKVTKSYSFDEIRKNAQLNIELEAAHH
Assay type: biochemical
With `CC(C)(C)OC(=O)N1C[C@@H]2[C@H](C1)[C@H]2C(F)CNC(=O)/C=C/c1ccc(N)nc1` (stereo partly drawn) [Example 254, (1R,5S,6r)-tert-butyl 6-(2-((E)-3-(6-aminopyridin-3-yl)acrylamido)-1-fluoroethyl)-3-azabicyclo[3.1.0]hexane-3-carboxylate] the IC50 was 0.01 to 0.49 µM.
`Cc1cccc(C)c1N1C[C@@H]2[C@@H](CCNC(=O)/C=C/c3cccnc3)[C@@H]2C1` [Example 133, (E)-N-(2-((1R,5S,6s)-3-(2,6-dimethylphenyl)-3-azabicyclo[3.1.0]hexan-6-yl)ethyl)-3-(pyridin-3-yl)acrylamide] was tested, and the IC50 was 0.01 to 0.49 µM.
For `CC1(OC(=O)N2C[C@@H]3[C@@H](CCNC(=O)N4Cc5ccccc5C4)[C@@H]3C2)COC1` [Example 230, (1R,5S,6s)-3-methyloxetan-3-yl 6-(2-(isoindoline-2-carboxamido)ethyl)-3-azabicyclo[3.1.0]hexane-3-carboxylate], the IC50 was 0.01 to 0.49 µM.
`CC1(OC(=O)N2C[C@@H]3[C@@H](CNC(=O)/C=C/c4ccc(N)nc4)[C@@H]3C2)COC1` [Example 239, (1R,5S,6s)-3-methyloxetan-3-yl 6-(((E)-3-(6-aminopyridin-3-yl)acrylamido)methyl)-3-azabicyclo[3.1.0]hexane-3-carboxylate] gave an IC50 of 1 to 29 µM.
`O=C(NCC[C@@H]1[C@H]2CN(C(=O)CC3CCOCC3)C[C@@H]12)c1cnc2nccn2c1` [Example 106, N-(2-((1R,5S,6s)-3-(2-(tetrahydro-2H-pyran-4-yl)acetyl)-3-azabicyclo[3.1.0]hexan-6-yl)ethyl)imidazo[1,2-a]pyrimidine-6-carboxamide] was tested, and the IC50 was 0.01 to 0.49 µM.
With `CC1(OC(=O)N2C[C@@H]3[C@@H](CCNC(=O)c4cc5cnccc5s4)[C@@H]3C2)COC1` [Example 37, (1R,5S,6s)-3-methyloxetan-3-yl 6-(2-(thieno[3,2-c]pyridine-2-carboxamido)ethyl)-3-azabicyclo[3.1.0]hexane-3-carboxylate] the IC50 was 0.01 to 0.49 µM.

Same assay, conditions: [HDB]; read-out: NAMPT IC50 (μM) [HDB]
`O=C(NCC[C@@H]1[C@H]2CN(c3nc(Cl)ncc3F)C[C@@H]12)c1cc2cnccc2[nH]1` [Example 204, N-(2-((1R,5S,6s)-3-(2-chloro-5-fluoropyrimidin-4-yl)-3-azabicyclo[3.1.0]hexan-6-yl)ethyl)-1H-pyrrolo[3,2-c]pyridine-2-carboxamide] gave an IC50 of 0.01 to 0.49 µM.
`O=C(/C=C/c1cccnc1)NCC[C@@H]1[C@H]2CN(c3ccc4c(c3)CNC4=O)C[C@@H]12` [Example 157, (E)-N-(2-((1R,5S,6s)-3-(1-oxoisoindolin-5-yl)-3-azabicyclo[3.1.0]hexan-6-yl)ethyl)-3-(pyridin-3-yl)acrylamide] was tested, and the IC50 was less than 0.01 µM.
`O=C(/C=C/c1cccnc1)NCC[C@@H]1[C@H]2CN(c3ncc(F)cn3)C[C@@H]12` [Example 163, (E)-N-(2-((1R,5S,6s)-3-(5-fluoropyrimidin-2-yl)-3-azabicyclo[3.1.0]hexan-6-yl)ethyl)-3-(pyridin-3-yl)acrylamide] showed an IC50 of 0.01 to 0.49 µM.
`O=C(NCC[C@@H]1[C@H]2CN(c3ccccc3)C[C@@H]12)c1cc2cnccc2[nH]1` [Example 198, N-(2-((1R,5S,6s)-3-phenyl-3-azabicyclo[3.1.0]hexan-6-yl)ethyl)-1H-pyrrolo[3,2-c]pyridine-2-carboxamide] gave an IC50 of 0.01 to 0.49 µM.
Work on `O=C(/C=C/c1cccnc1)NCC[C@@H]1[C@H]2CN(Cc3cncnc3)C[C@@H]12` [Example 298, (E)-3-(pyridin-3-yl)-N-(2-((1R,5S,6s)-3-(pyrimidin-5-ylmethyl)-3-azabicyclo[3.1.0]hexan-6-yl)ethyl)acrylamide] yielded an IC50 of less than 0.01 µM.
`O=C(O)c1cccc(C(=O)N2C[C@@H]3[C@@H](CCNC(=O)c4cnc5nccn5c4)[C@@H]3C2)c1` [Example 182, 3-((1R,5S,6s)-6-(2-(imidazo[1,2-a]pyrimidine-6-carboxamido)ethyl)-3-azabicyclo[3.1.0]hexane-3-carbonyl)benzoic acid] showed an IC50 of 0.01 to 0.49 µM.
`O=C(NCC[C@@H]1[C@H]2CN(c3nc(Cl)ncc3F)C[C@@H]12)c1ccc2ncnn2c1` [Example 217, N-(2-((1R,5S,6s)-3-(2-chloro-5-fluoropyrimidin-4-yl)-3-azabicyclo[3.1.0]hexan-6-yl)ethyl)-[1,2,4]triazolo[1,5-a]pyridine-6-carboxamide] was tested, and the IC50 was 0.01 to 0.49 µM.
`O=C(/C=C/c1cccnc1)NCC[C@@H]1[C@H]2CN(c3nc(OC4CCCC4)ncc3F)C[C@@H]12` [Example 278, (E)-N-(2-((1R,5S,6s)-3-(2-(cyclopentyloxy)-5-fluoropyrimidin-4-yl)-3-azabicyclo[3.1.0]hexan-6-yl)ethyl)-3-(pyridin-3-yl)acrylamide] showed an IC50 of less than 0.01 µM.
Compound `O=C(/C=C/c1cccnc1)NCC[C@@H]1[C@H]2CN(C(CO)c3ccccc3)C[C@@H]12` (stereo partly drawn) [Example 286, (E)-N-(2-((1R,5S,6s)-3-(2-hydroxy-1-phenylethyl)-3-azabicyclo[3.1.0]hexan-6-yl)ethyl)-3-(pyridin-3-yl)acrylamide] has an IC50 of 0.01 to 0.49 µM.
Compound `O=C(/C=C/c1cccnc1)NCC[C@@H]1[C@H]2CN(Cc3cnc(Cl)nc3)C[C@@H]12` [Example 316] has an IC50 of 0.01 to 0.49 µM.
`CC(C)(C)OC(=O)N1C[C@@H]2[C@H](CCNC(=O)/C=C/c3cccnc3)[C@@H]2C1` [Example 279, (1R,5S,6r)-tert-butyl 6-(2-((E)-3-(pyridin-3-yl)acrylamido)ethyl)-3-azabicyclo[3.1.0]hexane-3-carboxylate] showed an IC50 of 0.01 to 0.49 µM.
`O=C(/C=C/c1ccccc1)NCC[C@@H]1[C@H]2CN(c3nc(Cl)ncc3F)C[C@@H]12` [Example 210, N-(2-((1R,5S,6s)-3-(2-chloro-5-fluoropyrimidin-4-yl)-3-azabicyclo[3.1.0]hexan-6-yl)ethyl)cinnamamide] showed an IC50 of 0.01 to 0.49 µM.
`Nc1ccc(/C=C/C(=O)NCC[C@@]2(F)[C@@H]3CN(c4ncccn4)C[C@@H]32)cn1` [Example 290, (E)-3-(6-aminopyridin-3-yl)-N-(2-((1R,5S,6r)-6-fluoro-3-(pyrimidin-2-yl)-3-azabicyclo[3.1.0]hexan-6-yl)ethyl)acrylamide] gave an IC50 of 0.01 to 0.49 µM.
With `O=C(/C=C/c1cccnc1)NCC[C@@H]1[C@H]2CN(c3ccnc(OC4CCOCC4)c3)C[C@@H]12` [Example 310, (E)-3-(Pyridin-3-yl)-N-(2-((1R,5S,6s)-3-(2-((tetrahydro-2H-pyran-4-yl)oxy)pyridin-4-yl)-3-azabicyclo[3.1.0]hexan-6-yl)ethyl)acrylamide] the IC50 was 0.01 to 0.49 µM.
`CSc1cccc(N2C[C@@H]3[C@@H](CCNC(=O)/C=C/c4cccnc4)[C@@H]3C2)c1` [Example 151, (E)-N-(2-((1R,5S,6s)-3-(3-(methylthio)phenyl)-3-azabicyclo[3.1.0]hexan-6-yl)ethyl)-3-(pyridin-3-yl)acrylamide] showed an IC50 of less than 0.01 µM.
With `NC(=O)c1cccc(C(=O)N2C[C@@H]3[C@@H](CCNC(=O)c4cc5cnccc5[nH]4)[C@@H]3C2)c1` [Example 116, N-(2-((1R,5S,6s)-3-(3-carbamoylbenzoyl)-3-azabicyclo[3.1.0]hexan-6-yl)ethyl)-1H-pyrrolo[3,2-c]pyridine-2-carboxamide] the IC50 was 0.01 to 0.49 µM.
`O=C(/C=C/c1cccnc1)NCC[C@@H]1[C@H]2CN(c3ccnc(Cl)c3)C[C@@H]12` [Example 160, (E)-N-(2-((1R,5S,6s)-3-(2-chloropyridin-4-yl)-3-azabicyclo[3.1.0]hexan-6-yl)ethyl)-3-(pyridin-3-yl)acrylamide] showed an IC50 of less than 0.01 µM.
`O=C(/C=C/c1cccnc1)NCC[C@@H]1[C@H]2CN(c3ncncn3)C[C@@H]12` [Example 170, (E)-N-(2-((1R,5S,6s)-3-(1,3,5-triazin-2-yl)-3-azabicyclo[3.1.0]hexan-6-yl)ethyl)-3-(pyridin-3-yl)acrylamide] was tested, and the IC50 was 0.01 to 0.49 µM.
